Test results reported in PubChem BioAssay (NCI).
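Tested at 5 concentrations; 48 h exposure; 96-well plates; endpoints linearly interpolated, else capped at highest concentration. TGI is the concentration that stops growth completely.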

Columns and labels:
Test in all cases: growth of human tumour cells (NCI), 48 h
[1] = test system: HCC-2998 colon
[2] = test system: HCT-116 colon
[3] = test system: HCT-15 colon
[4] = test system: IGROV1 ovarian
[5] = test system: LOX IMVI melanoma
[6] = test system: MDA-MB-231 breast
[7] = test system: RXF 393 renal
[8] = test system: SF-295 CNS
[9] = test system: SNB-75 CNS
[10] = test system: U251 CNS

Row | SMILES | TGI [1] | TGI [2] | TGI [3] | TGI [4] | TGI [5] | TGI [6] | TGI [7] | TGI [8] | TGI [9] | TGI [10]
1 | CCCCCCCCCCCC[S+](C)C | 16.8 µM | 20.8 µM | 53.8 µM | 6.16 µM | 15.9 µM | 10.1 µM | 9.38 µM | 16.6 µM | 16.6 µM | 31.7 µM
2 | O=C1NC2c3c(I)sc(I)c3C(O)C2O1 (stereo not given) | > 100 µM | > 100 µM | > 100 µM | > 100 µM | > 100 µM | > 100 µM | > 100 µM | > 100 µM | > 100 µM | > 100 µM
